Literature values, collected in patent US20120178757A1, “Method For The Prevention Of Cancer Metastasis” (NOTTINGHAM UNIVERSITY HOSPITALS NHS TRUST, priority 2010, published 2012).
Entries after “also recorded” stand apart in the source; their conditions may differ.

Key:
breast cancer cells = details: in vitro breast cancer cells
prostate cancer = details: coincidental treatment for hypertension or benign prostate hyperplasia
[1] = tested on: carcinoma cell lines of colon, prostate, ovary and breast; details: adrenoceptor-mediated, norepinephrine-induced migration of cancer cells
[2] = tested on: human pancreatic cell lines

Compound	apoptosis (breast cancer cells)	proliferation (breast cancer cells)	incidence of prostate cancer (prostate cancer)	cell migration [1]	proliferation [2]
COc1cc2nc(N3CCN(C(=O)C4COc5ccccc5O4)CC3)nc(N)c2cc1OC (stereo not drawn) [doxazosin, Doxazosin]	induce apoptosis	inhibit proliferation	significantly lowered the incidence of prostate cancer	–	–
CC(C)NCC(O)COc1cccc2ccccc12 (stereo not drawn) [propranolol, Propranolol]	–	–	–	can be inhibited; also recorded: is inhibited	can reduce proliferation
COc1cc2nc(N3CCN(C(=O)C4CCCO4)CC3)nc(N)c2cc1OC (stereo not drawn) [terazosin, Terazosin]	–	–	significantly lowered the incidence of prostate cancer	–	–
